Results: patent publication US20220249475A1, “COMPOUNDS AND METHOD FOR TREATING CYTOKINE RELEASE SYNDROME” (Rigel Pharmaceuticals, Inc., priority 2019, published 2022)

Columns and labels:
Type in all cases: cell-based
[1] = tested on: Dendritic cells + T cells + CD3/CD28 beads; test: CRS assay: dendritic cells + T cells + CD3/CD28 beads, IL2 ELISA; conditions: Homo sapiens; same culture; IL-2 only produced by the activated T cells
Excerpt: (§1) Human PBMC cells (PPA Research Group, Cat No. 15-00021); RPMI media 10% FBS; GMCSF (Peprotech, Cat No. 300-03) and IL4 (Peprotech Cat No. 200-04); White clear bottom 96 well plates (Fisher, Cat No. 07-200-587, Corning #3903); Human IL-2 DuoSet ELISA (R&D Systems, Cat No. DY202); Human IL-6 DuoSet ELISA (R&D Systems, Cat No. DY206); Cell Titer Glo reagent (Promega, Cat No. G7573); Dynabeads Human T-Activator CD3/CD28 (Fisher, Cat No. 111.61D); Anti-human CD3 (BD Biosciences, Cat No. 555336); CD28, Clone CD28.2 (Beckman Coulter Inc. Cat No. IM1376); Recombinant Human IL-2 Protein (R&D Systems, Cat No. 202-IL-500).
Human peripheral blood mononuclear cells (PBMC) (400 million) obtained from the vendor were transferred into three T-175 flasks containing 16 ml RPMI media (10% fetal bovine serum (FBS)) and incubated for 2 hours at 37° C. After 2 hours, floating PBL was removed and the cell was rinsed twice with 10 ml of media. The PBL and media was saved for T cell expansion. 16 ml of fresh RPMI media (10% FBS) containing Granulocyte Macrophage Colony—Stimulating Factor (GMCSF) (100 ng/ml) and IL4 (20 ng/ml) was added and the flask was kept in a 37° C. incubator. […]
(§2) After incubation, 80 μl of the supernatant was harvested from each well for IL6 ELISA and 80 μl of the supernatant for IL2 ELISA. […] The plate was read for luminescence intensity to determine the compound cytotoxicity.

[2] = tested on: Dendritic cells + T cells + CD3/CD28 beads; test: CRS assay: Cell Titer Glo compound cytotoxicity; conditions: Homo sapiens, luminescence of the remaining culture, read-out: Cell Titer Glo 2 EC50
Excerpt: as §1
After 4 days, the dendritic cells were harvested by spinning down (1000 rpm/10 min) and aspirating the media. After resuspending the cells in fresh RPMI media (10% FBS), the cells were plated (25K/well in 50 μl) onto a white clear bottom 96 well plate. […] of RPMI media containing 2× concentrated test compound was added per well to the above cell-culture media (final concentration becomes 1×) and the plates were pre-incubated for 1 hour at 37° C. […]
as §2

[3] = tested on: Dendritic cells + T cells + CD3/CD28 beads; test: CRS assay: dendritic cells + T cells + CD3/CD28 beads, IL6 ELISA; conditions: human PBMC-derived dendritic cells, 1 hour compound pre-incubation, overnight with T cells and CD3/CD28 beads; IL-6 primarily produced by the dendritic cells

| Compound | EC50 [1] [µM] | EC50 [2] [µM] | EC50 [3] [µM] |
| --- | --- | --- | --- |
| CCO[C@H]1CC[C@H](n2cc(NC(=O)c3csc(-c4cn[nH]c4)n3)c(-c3nc(F)ccc3F)n2)CC1 [VI-176, N-(3-(3,6-difluoropyridin-2-yl)-1-((1r,4r)-4-ethoxycyclohexyl)-1H-pyrazol-4-yl)-2-(1H-pyrazol-4-yl)thiazole-4-carboxamide] | 6.9 | 12 | 0.195 |
| COc1cc(Nc2ncc(C)c(Nc3ccc4oc(=O)[nH]c4c3)n2)cc(C)c1F [Compound I-432, 5-(2-(4-fluoro-3-methoxy-5-methylphenylamino)-5-methylpyrimidin-4-ylamino)benzo[d]oxazol-2(3H)-one] | 4.41 | 4.55 | 0.052 |
